Laboratory results taken from the supplement of paper PMC10307832.

Assays:
Test in all cases: relative viability (nuclei count vs DMSO), 5 days (fraction); higher = more cells survive
NCI-H1944 = test system: NCI-H1944
How it was run: (§1)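 The day after seeding in 1536-well plates, lung cancer cell lines were treated by pin tool with a single drug, or with a fixed anchor-drug dose together with five library-drug doses (not always all listed) in √10 steps. After 5 days, a combined fix-and-stain solution (final 0.05% Triton X-100, 1% formaldehyde, 1 ug/ml Hoechst) was added. Nuclei counted on 4× images gave relative viability as treated counts over vehicle counts, reported as the median of duplicate plates.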

HOP-62 = test system: HOP-62
How it was run: as §1

A-427 = test system: A-427
How it was run: as §1

PC-3 [JPC-3] = test system: PC-3 [JPC-3]
How it was run: as §1

SK-MES-1 = test system: SK-MES-1
How it was run: as §1

NCI-H3122 = test system: NCI-H3122
How it was run: as §1

NCI-H596 = test system: NCI-H596
How it was run: as §1

NCI-H1993 = test system: NCI-H1993
How it was run: as §1

NCI-H2009 = test system: NCI-H2009
How it was run: as §1

NCI-H2170 = test system: NCI-H2170
How it was run: as §1

NCI-H322M = test system: NCI-H322M
How it was run: as §1

LXF-289 = test system: LXF-289
How it was run: as §1

ABC-1 = test system: ABC-1
How it was run: as §1

LK-2 = test system: LK-2
How it was run: as §1

HARA = test system: HARA
How it was run: as §1

NCI-H2228 = test system: NCI-H2228
How it was run: as §1

NCI-H1792 = test system: NCI-H1792
How it was run: as §1

EMC-BAC-2 = test system: EMC-BAC-2
How it was run: as §1

SW 1573 = test system: SW 1573
How it was run: as §1

NCI-H727 = test system: NCI-H727
How it was run: as §1

In the case of `CC(=O)O[C@@]12CO[C@@H]1C[C@H](O)[C@@]1(C)C(=O)[C@H](O)C3=C(C)[C@@H](OC(=O)[C@H](O)[C@@H](NC(=O)OC(C)(C)C)c4ccccc4)C[C@@](O)([C@@H](OC(=O)c4ccccc4)[C@H]21)C3(C)C` [Docetaxel] + CS(=O)(=O)N1CCN(Cc2cc3nc(-c4cccc5[nH]ncc45)nc(N4CCOCC4)c3s2)CC1 [Pictilisib] (partner 1 µM), the relative viability (NCI-H1944; first compound 0.0002 µM) is reported as 0.338, the relative viability (NCI-H1944; first compound 0.000632 µM) is reported as 0.368 and the relative viability (NCI-H1944; first compound 0.002 µM) is reported as 0.318. It also gave a relative viability (NCI-H1944; first compound 0.006325 µM) of 0.322, a relative viability (NCI-H1944; first compound 0.02 µM) of 0.178 and a relative viability (HOP-62; first compound 0.0002 µM) of 0.75. For the same molecule, the relative viability (HOP-62; first compound 0.000632 µM) was 0.395, the relative viability (HOP-62; first compound 0.02 µM) was 0.101 and the relative viability (A-427; first compound 0.0002 µM) was 0.766. The relative viability (A-427; first compound 0.000632 µM) was 0.885, the relative viability (A-427; first compound 0.002 µM) was 0.488 and the relative viability (A-427; first compound 0.006325 µM) was 0.23. It also gave a relative viability (A-427; first compound 0.02 µM) of 0.158, a relative viability (PC-3 [JPC-3]; first compound 0.0002 µM) of 0.693 and a relative viability (PC-3 [JPC-3]; first compound 0.000632 µM) of 0.715. It also gave a relative viability (PC-3 [JPC-3]; first compound 0.002 µM) of 0.454, a relative viability (PC-3 [JPC-3]; first compound 0.006325 µM) of 0.329 and a relative viability (PC-3 [JPC-3]; first compound 0.02 µM) of 0.229. For the same molecule, the relative viability (SK-MES-1; first compound 0.0002 µM) was 0.303, the relative viability (SK-MES-1; first compound 0.000632 µM) was 0.34 and the relative viability (SK-MES-1; first compound 0.006325 µM) was 0.206. It also gave a relative viability (SK-MES-1; first compound 0.02 µM) of 0.119, a relative viability (NCI-H3122; first compound 0.0002 µM) of 0.567 and a relative viability (NCI-H3122; first compound 0.000632 µM) of 0.577. The relative viability (NCI-H3122; first compound 0.002 µM) was 0.396, the relative viability (NCI-H3122; first compound 0.006325 µM) was 0.217 and the relative viability (NCI-H3122; first compound 0.02 µM) was 0.172. It also gave a relative viability (NCI-H596; first compound 0.0002 µM) of 0.405, a relative viability (NCI-H596; first compound 0.000632 µM) of 0.252 and a relative viability (NCI-H596; first compound 0.002 µM) of 0.452. It also gave a relative viability (NCI-H596; first compound 0.006325 µM) of 0.297, a relative viability (NCI-H596; first compound 0.02 µM) of 0.256 and a relative viability (NCI-H1993; first compound 0.0002 µM) of 0.746. The relative viability (NCI-H1993; first compound 0.000632 µM) was 0.706, the relative viability (NCI-H1993; first compound 0.002 µM) was 0.729 and the relative viability (NCI-H1993; first compound 0.006325 µM) was 0.682. For the same molecule, the relative viability (NCI-H1993; first compound 0.02 µM) was 0.545, the relative viability (NCI-H2009; first compound 0.0002 µM) was 0.696 and the relative viability (NCI-H2009; first compound 0.000632 µM) was 0.747. The relative viability (NCI-H2009; first compound 0.002 µM) was 0.447, the relative viability (NCI-H2009; first compound 0.006325 µM) was 0.203 and the relative viability (NCI-H2009; first compound 0.02 µM) was 0.129. For the same molecule, the relative viability (NCI-H2170; first compound 0.0002 µM) was 0.342, the relative viability (NCI-H2170; first compound 0.000632 µM) was 0.288 and the relative viability (NCI-H2170; first compound 0.002 µM) was 0.183. The relative viability (NCI-H2170; first compound 0.006325 µM) was 0.186, the relative viability (NCI-H322M; first compound 0.0002 µM) was 0.433 and the relative viability (NCI-H322M; first compound 0.000632 µM) was 0.493. For the same molecule, the relative viability (NCI-H322M; first compound 0.002 µM) was 0.492, the relative viability (NCI-H322M; first compound 0.006325 µM) was 0.381 and the relative viability (NCI-H322M; first compound 0.02 µM) was 0.313. For the same molecule, the relative viability (LXF-289; first compound 0.0002 µM) was 0.815, the relative viability (LXF-289; first compound 0.000632 µM) was 0.653 and the relative viability (LXF-289; first compound 0.002 µM) was 0.212. It also gave a relative viability (LXF-289; first compound 0.006325 µM) of 0.114, a relative viability (LXF-289; first compound 0.02 µM) of 0.0576 and a relative viability (ABC-1; first compound 0.0002 µM) of 0.772. The relative viability (ABC-1; first compound 0.000632 µM) was 0.685, the relative viability (ABC-1; first compound 0.002 µM) was 0.442 and the relative viability (ABC-1; first compound 0.006325 µM) was 0.304. For the same molecule, the relative viability (ABC-1; first compound 0.02 µM) was 0.253, the relative viability (LK-2; first compound 0.0002 µM) was 0.496 and the relative viability (LK-2; first compound 0.000632 µM) was 0.404. For the same molecule, the relative viability (LK-2; first compound 0.002 µM) was 0.216, the relative viability (LK-2; first compound 0.006325 µM) was 0.25 and the relative viability (LK-2; first compound 0.02 µM) was 0.203. It also gave a relative viability (HARA; first compound 0.0002 µM) of 0.211, a relative viability (HARA; first compound 0.000632 µM) of 0.159 and a relative viability (HARA; first compound 0.002 µM) of 0.126. For the same molecule, the relative viability (HARA; first compound 0.006325 µM) was 0.0701, the relative viability (HARA; first compound 0.02 µM) was 0.0659 and the relative viability (NCI-H2228; first compound 0.0002 µM) was 0.291. The relative viability (NCI-H2228; first compound 0.000632 µM) was 0.153, the relative viability (NCI-H2228; first compound 0.002 µM) was 0.138 and the relative viability (NCI-H2228; first compound 0.006325 µM) was 0.18. The relative viability (NCI-H2228; first compound 0.02 µM) was 0.131, the relative viability (NCI-H1792; first compound 0.0002 µM) was 0.274 and the relative viability (NCI-H1792; first compound 0.000632 µM) was 0.273. The relative viability (NCI-H1792; first compound 0.002 µM) was 0.178, the relative viability (NCI-H1792; first compound 0.02 µM) was 0.073 and the relative viability (EMC-BAC-2; first compound 0.0002 µM) was 0.555. The relative viability (EMC-BAC-2; first compound 0.000632 µM) was 0.469, the relative viability (EMC-BAC-2; first compound 0.002 µM) was 0.324 and the relative viability (EMC-BAC-2; first compound 0.006325 µM) was 0.271. The relative viability (EMC-BAC-2; first compound 0.02 µM) was 0.207, the relative viability (SW 1573; first compound 0.0002 µM) was 0.372 and the relative viability (SW 1573; first compound 0.000632 µM) was 0.314. For the same molecule, the relative viability (SW 1573; first compound 0.002 µM) was 0.196, the relative viability (SW 1573; first compound 0.006325 µM) was 0.153 and the relative viability (SW 1573; first compound 0.02 µM) was 0.144. For the same molecule, the relative viability (NCI-H727; first compound 0.0002 µM) was 0.309, the relative viability (NCI-H727; first compound 0.000632 µM) was 0.4 and the relative viability (NCI-H727; first compound 0.002 µM) was 0.255. For the same molecule, the relative viability (NCI-H727; first compound 0.006325 µM) was 0.213 and the relative viability (NCI-H727; first compound 0.02 µM) was 0.182.
